# “And” between values parts separate entries of the source, which are not always exact repeats. Identical values can stand only once. Like-named read-outs stand apart in the source and are kept apart here.
# Legend:
# [1] = system: MCF-7 cell line; assay: MTT cytotoxicity assay, MCF-7; assay type: cell-based; settings: Homo sapiens, read-out: IC50 (mean±SD) MCF-7
# Text: (§1) The recently incorporated quinazolinone-based targets 1–4, 6–13 underwent evaluation for their cytotoxic effects with in vitro employing MTT technique, according to the procedure that has been published[48]–[50], utilizing human fibroblast-derived BJ-1 normal cell line, and human cancer liver HepG-2, breast MCF-7, and colon HCT-116 cell lines. These cell lines were purchased from Karolinska Center, Department of Oncology and Pathology, Karolinska Institute and Hospital, Stockholm, Sweden, There were further details in the supplemental file.
# (§2) The cell lines were obtained from Karolinska Center, Department of Oncology and Pathology, Karolinska Institute and Hospital, Stockholm, Sweden as follows: human liver HepG-2, breast MCF-7, and colorectal HCT-116 cancer cell lines and human fibroblast-derived BJ-1 normal cell line. Exponentially, cells were placed in 10^4 cells/ well for 24 h, and then add fresh medium which containing different concentration of the tested sample. Serial two-fold dilution of the tested sample were added using a multichannel pipette. Moreover, all cells were cultivated at 37 °C, 5% CO2 and 95% humidity. Also, incubation of control cells occurred at 37 °C. However, after incubation for 24 h different concentrations of sample (25, 12.5, 6.25 and 3.125 µM) were added and continued the incubation for 48 h, then, add the crystal violet solution 1% to each well for 0.5 h to examine viable cells. Rinse the wells using water until no stain. After that, add 30% glacial acetic acid to all wells with shaking plates on Microplate reader (TECAN, Inc.) to measure the absorbance, using a test wavelength of 490 nm. Besides, compare the treated samples with the control cell. The cytotoxicity was estimated by IC50 in (μM), the concentration that inhibits 50% of growth of cancer cell.
# [2] = target: VEGFR-2 (Homo sapiens, UniProt P35968); assay: In vitro VEGFR-2 inhibition assay (ELISA); settings: read-out: IC50 (mean ± SD) VEGFR-2; average of three values
# Chain of VEGFR-2 (P35968 20-1356): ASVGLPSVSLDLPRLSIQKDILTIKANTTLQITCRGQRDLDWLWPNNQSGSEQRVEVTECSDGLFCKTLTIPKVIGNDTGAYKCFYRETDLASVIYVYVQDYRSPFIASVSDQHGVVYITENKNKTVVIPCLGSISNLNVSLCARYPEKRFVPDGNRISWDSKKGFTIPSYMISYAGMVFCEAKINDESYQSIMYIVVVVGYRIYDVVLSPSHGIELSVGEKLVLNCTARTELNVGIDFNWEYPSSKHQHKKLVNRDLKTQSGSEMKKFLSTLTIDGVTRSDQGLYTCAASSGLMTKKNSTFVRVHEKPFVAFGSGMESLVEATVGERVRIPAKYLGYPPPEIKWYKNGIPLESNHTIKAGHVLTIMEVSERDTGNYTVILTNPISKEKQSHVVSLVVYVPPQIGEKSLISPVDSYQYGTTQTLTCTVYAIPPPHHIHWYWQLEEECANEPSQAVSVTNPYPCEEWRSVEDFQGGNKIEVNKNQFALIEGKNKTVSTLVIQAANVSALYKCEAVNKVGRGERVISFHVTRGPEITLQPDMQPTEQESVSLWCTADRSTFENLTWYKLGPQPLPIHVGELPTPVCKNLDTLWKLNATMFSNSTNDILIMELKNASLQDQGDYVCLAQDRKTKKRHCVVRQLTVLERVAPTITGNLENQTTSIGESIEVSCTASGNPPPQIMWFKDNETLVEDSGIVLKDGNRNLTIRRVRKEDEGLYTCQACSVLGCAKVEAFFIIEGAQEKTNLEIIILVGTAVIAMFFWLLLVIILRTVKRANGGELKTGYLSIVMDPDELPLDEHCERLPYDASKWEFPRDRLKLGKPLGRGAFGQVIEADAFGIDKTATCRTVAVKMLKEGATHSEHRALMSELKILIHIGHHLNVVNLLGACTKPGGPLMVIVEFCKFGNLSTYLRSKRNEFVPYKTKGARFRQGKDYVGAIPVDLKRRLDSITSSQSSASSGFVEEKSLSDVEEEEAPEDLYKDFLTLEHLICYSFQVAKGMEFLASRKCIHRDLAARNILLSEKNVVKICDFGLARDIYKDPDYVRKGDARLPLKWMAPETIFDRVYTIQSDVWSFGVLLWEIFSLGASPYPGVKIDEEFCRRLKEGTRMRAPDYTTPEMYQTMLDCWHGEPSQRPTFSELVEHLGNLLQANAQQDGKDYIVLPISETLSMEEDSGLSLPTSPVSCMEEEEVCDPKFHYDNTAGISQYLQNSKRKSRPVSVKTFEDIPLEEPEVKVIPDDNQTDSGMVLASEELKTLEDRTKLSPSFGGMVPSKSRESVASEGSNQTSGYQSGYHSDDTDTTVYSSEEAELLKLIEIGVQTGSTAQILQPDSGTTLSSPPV
# [3] = system: HCT-116 cell line; assay: MTT cytotoxicity assay, HCT-116; assay type: cell-based; settings: Homo sapiens, read-out: IC50 (mean±SD) HCT-116
# Text: as §1, §2
# [4] = target: EGFR (Homo sapiens, UniProt P00533); assay: In vitro EGFR inhibition assay (Kinase-Glo luminescence)
# Chain of EGFR (P00533 25-1210): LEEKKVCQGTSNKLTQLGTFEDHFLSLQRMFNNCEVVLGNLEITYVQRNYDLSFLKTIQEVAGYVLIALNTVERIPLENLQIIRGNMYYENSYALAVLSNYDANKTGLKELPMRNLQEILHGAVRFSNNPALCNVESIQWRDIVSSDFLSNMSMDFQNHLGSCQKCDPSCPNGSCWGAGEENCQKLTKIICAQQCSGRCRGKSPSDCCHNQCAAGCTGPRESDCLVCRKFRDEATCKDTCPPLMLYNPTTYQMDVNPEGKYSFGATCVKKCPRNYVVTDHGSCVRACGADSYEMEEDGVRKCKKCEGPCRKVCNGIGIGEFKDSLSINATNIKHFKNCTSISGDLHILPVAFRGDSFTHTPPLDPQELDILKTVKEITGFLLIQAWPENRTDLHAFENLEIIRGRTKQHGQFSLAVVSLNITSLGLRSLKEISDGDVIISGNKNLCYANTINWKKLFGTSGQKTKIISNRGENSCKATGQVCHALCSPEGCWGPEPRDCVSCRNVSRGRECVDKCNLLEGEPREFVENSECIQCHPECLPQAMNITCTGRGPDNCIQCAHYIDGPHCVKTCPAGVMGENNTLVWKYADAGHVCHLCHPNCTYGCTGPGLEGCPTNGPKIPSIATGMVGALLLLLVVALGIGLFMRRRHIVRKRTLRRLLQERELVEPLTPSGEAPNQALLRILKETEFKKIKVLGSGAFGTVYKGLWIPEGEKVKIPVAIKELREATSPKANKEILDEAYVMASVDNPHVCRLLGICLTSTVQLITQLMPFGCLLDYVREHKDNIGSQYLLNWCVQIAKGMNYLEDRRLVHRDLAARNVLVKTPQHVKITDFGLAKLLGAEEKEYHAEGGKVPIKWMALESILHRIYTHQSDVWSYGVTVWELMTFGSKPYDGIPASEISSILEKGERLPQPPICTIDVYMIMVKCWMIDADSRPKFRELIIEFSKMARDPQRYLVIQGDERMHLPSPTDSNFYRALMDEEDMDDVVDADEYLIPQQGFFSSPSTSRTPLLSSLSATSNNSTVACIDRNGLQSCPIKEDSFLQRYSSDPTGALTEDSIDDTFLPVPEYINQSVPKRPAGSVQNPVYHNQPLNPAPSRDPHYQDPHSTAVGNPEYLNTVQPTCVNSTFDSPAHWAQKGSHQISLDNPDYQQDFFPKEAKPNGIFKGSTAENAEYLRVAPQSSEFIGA
# [5] = system: BJ-1 normal cell line; assay: MTT cytotoxicity assay, normal BJ-1 fibroblasts (safety profile); assay type: cell-based; settings: Homo sapiens, read-out: IC50 (mean±SD) BJ-1
# Description: […]. The safety profiles of all derivatives were assessed through cytotoxic evaluation using human fibroblast-derived BJ-1 normal cell lines. […].
# as §1, §2
# [6] = system: HepG-2 cell line; assay: MTT cytotoxicity assay, HepG-2; assay type: cell-based; settings: Homo sapiens, read-out: IC50 (mean±SD) HepG-2
# Text: as §1, §2
# [7] = system: HCT-116 cells; assay: Apoptosis analysis by annexin V-FITC/PI flow cytometry; assay type: cell-based, human; settings: 5.40 µM, 24 h
# Description: (§3) The most powerful cytotoxic derivative, quinazolinone-1,2,3-triazole glycoside 13, underwent 24-hour treatment at a dose of 5.40 µM to find out if it caused cell death by the apoptotic pathway in HCT-116 cells. Using annexin-V labeling, flow cytometry was employed to further analyze the cells (Figs. 4, 5 and 6).
# (§4) The examination of apoptosis and the interpretation of the cell cycle were described[37] utilizing flow cytometry. HCT-116 cells were treated with quinacolinone-1,2,3-triazole glycoside 13 for a full day, and after that, the cells were cultured at 37 °C. There were more details added to supporting documentation .
# (§5) Cell cycle analysis and apoptosis study were carried out using flow cytometry. HCT-116 cells were seeded at 8×10^4 and incubated at 37°C in 5% CO2 overnight. After treatment with the tested compound 10 for 24 h, cell pellets were collected and centrifuged (300 g, 5 min). For cell cycle analysis cell pellets were fixed with 70% ethanol on ice for 15 min and collected again. The pellets were incubated with propidium iodide (PI) staining solution at room temperature for 1 h and analyzed by a Gallios flow cytometer (Beckman Coulter, Brea, CA, USA). Apoptosis detection was carried out by FITC AnnexinV/PI commercial kit (Becton Dickenson, Franklin Lakes, NJ, USA) following the manufacturer protocol. The samples were analyzed by fluorescence-activated cell sorting (FACS) with a Gallios flow cytometer (Beckman Coulter, Brea, CA, USA) within 1 h after staining. Data were analyzed using Kaluza v 1.2 (Beckman Coulter).
# [8] = system: Bcl-2; assay: Bcl-2 level in HCT-116 cells; assay type: cell-based, human
# Text: (§6) The methods previously described for the appealing quinazolinone-1,2,3-triazole glycoside 13 was used to clearly show the levels of p53, Bax, Bcl-2, and in HCT-116 cells.
# (§7) The levels of the apoptotic marker Bax and anti-apoptotic marker Bcl-2 were estimated using BIO RAD iScript TM One-Step RT-PCR kit with SYBR® Green. The procedure of the used kit was done according to the manufacturer’s instructions.
# [9] = system: HCT-116 cells; assay: Cell cycle analysis by flow cytometry (PI); assay type: cell-based, human
# Description: as §3, §4, §5
# [10] = system: Bax; assay: Bax level in HCT-116 cells; assay type: cell-based, human
# Text: as §6, §7
# [11] = system: p53; assay: p53 level in HCT-116 cells (ELISA); assay type: cell-based, human
# Description: as §6
# Human p53 present in HCT-116 cells was determined; using Human p53 ELISA-Kit (CS0070 Sigma) read using spectrophotometer at 450 nm against untreated control cells (negative control) applying the standard protocols of the manufacturers. The samples or standard having human p53 bind to antibodies adsorbed to the microwells. Addition of biotin-conjugated was followed by incubation and addition of dispense of unbound biotin-conjugated streptavidin HRP. Then, the reaction was terminated by adding acid, and the absorbance was measured at 450 nm.
# [12] = MCF7, MCF-7 breast cancer cells, 48 h incubation, mean of three values
# [13] = HCT-116 colorectal cancer cells, 48 h incubation, mean of three values
# [14] = BJ-1 normal fibroblast-derived cells, 48 h incubation, mean of three values
# [15] = HepG2, HepG-2 liver cancer cells, 48 h incubation, mean of three values
Structure (SMILES),IC50 [2],IC50 [4],"IC50 [1, 12]","IC50 [3, 13]","IC50 [5, 14]","IC50 [6, 15]",other results
"CC(=O)OC[C@H]1O[C@@H](n2cc(CSc3nc4ccccc4c(=O)n3C)nn2)[C@H](OC(C)=O)[C@@H](OC(C)=O)[C@H]1OC(C)=O [Compound 7, 2-(((1-[2,3,4,6-Tetra-O-acetyl-β-D-galactopyranosyl]-1 H-1,2,3-triazol-4-yl)methyl)thio)-3-methylquinazolin-4(3 H)-one]",36.33 ± 0.17 µM,17.94 ± 0.1 µM,17.3 ± 0.5 µM,5.5 ± 0.1 µM,22.9 ± 3.2 µM,21.5 ± 2.5 µM,
"COc1cccc2c1C(=O)c1c(O)c3c(c(O)c1C2=O)C[C@@](O)(C(=O)CO)C[C@@H]3O[C@H]1C[C@H](N)[C@H](O)[C@H](C)O1 [Doxorubicin, reference compound]",,,5.6 ± 0.3 µM,6.5 ± 0.5 µM,32.1 ± 3.1 µM,4.8 ± 0.5 µM,
O=c1c2ccccc2nc(S)n1-c1ccccc1 [Compound 1],,,16.1 ± 1.1 µM,18.6 ± 1.5 µM,> 25 µM,21.9 ± 1.9 µM,
Cn1c(S)nc2ccccc2c1=O [Compound 2],,,14.9 ± 1.3 µM,16.1 ± 1.3 µM,> 25 µM,24.1 ± 3.1 µM,
"C#CCSc1nc2ccccc2c(=O)n1C [Compound 4, 3-methyl-2-(prop-2-yn-1-ylthio)quinazolin-4(3 H)-one]",,,14.6 ± 1.1 µM,13.5 ± 1.1 µM,> 25 µM,21.9 ± 2.7 µM,melting point: 163 to 165 °C
"Cn1c(SCc2cn([C@@H]3OC[C@@H](O)[C@H](O)[C@H]3O)nn2)nc2ccccc2c1=O [Compound 13, 2-(((1-[β-D-Xylopyranosyl]-1 H-1,2,3-triazol-4-yl)methyl)thio)-3-methylquinazolin-4(3 H)-one]",3.2 ± 0.15 µM,0.31 ± 0.06 µM,7.9 ± 0.3 µM,5.4 µM,23.5 ± 2.3 µM,18.2 ± 2.2 µM,"Apoptosis Late ([7]; DMSO control 0.14): 25.36%; Apoptosis Early ([7]; DMSO control 0.55): 7.42%; Necrosis ([7]; DMSO control 1.35): 3.53%; Bcl-2 ([8]; 24-hour treatment at IC50 5.40 µM, control 7.48): 3.15 ng/mL and 3.15 ± 0.22 ng/mL; reduction of Bcl-2 protein levels versus control ([8]; 24 h, 5.40 µM): ~2.4 times; stage of cell cycle arrest [9]: G1 stage; %G2/M ([9]; 5.40 µM, 24-hour treatment (Table S2 title: 48 h), control 13.24): 9.43%; %S ([9]; 5.40 µM, 24-hour treatment (Table S2 title: 48 h), control 32.81): 22.46%; %G0-G1 ([9]; 5.40 µM, 24-hour treatment (Table S2 title: 48 h), control 53.95): 68.11%; Bax/Bcl-2 ([10]; 24-hour treatment at 5.40 µM, control 4.53): 72.83; Bax ([10]; 24-hour treatment at IC50 5.40 µM, control 33.85): 229.40 pg/mL and 229.40 ± 1.62 pg/mL; improvement in Bax values versus untreated control ([10]; 24 h, 5.40 µM): 6.8 fold; P53 ([11]; 24-hour treatment at IC50 5.40 µM, control 139.65): 885.72 pg/mL and 885.72 ± 1.49 pg/mL; enhancement of p53 protein levels versus control ([11]; 24 h, 5.40 µM): 6.3 times"
"CC(=O)O[C@@H]1[C@@H](OC(C)=O)[C@H](OC(C)=O)CO[C@H]1n1cc(CSc2nc3ccccc3c(=O)n2-c2ccccc2)nn1 [Compound 8, 2-(((1-[2,3,4-tri-O-acetyl-β-D-xylopyranosyl]-1 H-1,2,3-triazol-4-yl)methyl)thio)-3-phenylquinazolin-4(3 H)-one]",28.4 ± 0.5 µM,21.38 ± 0.15 µM,14 ± 1.2 µM,< 3.12 µM,> 25 µM,21.4 ± 3.1 µM,melting point: 210 to 212 °C
C#CCSc1nc2ccccc2c(=O)n1-c1ccccc1 [Compound 3],,,15.9 ± 1.3 µM,14.8 ± 1.6 µM,> 25 µM,> 25 µM,
"C#Cc1cccc(Nc2ncnc3cc(OCCOC)c(OCCOC)cc23)c1 [Erlotinib, reference compound]",,,,,,,"IC50 ([1]; MCF7, 48 h): 4.3 ± 0.1 µM; IC50 ([3]; HCT-116, 48 h): 7.3 ± 0.2 µM; IC50 ([5]; Fibroblast, 48 h): 58.3 ± 1.4 µM; IC50 ([6]; HepG2, 48 h): 7.8 ± 0.2 µM"

# Now from value to compound, other results behind:
IC50 [2],IC50 [4],Structure (SMILES),"IC50 [1, 12]","IC50 [3, 13]","IC50 [5, 14]","IC50 [6, 15]",other results
30.6 ± 0.32 µM,23.05 ± 0.08 µM,"CC(=O)O[C@@H]1[C@@H](OC(C)=O)[C@H](OC(C)=O)CO[C@H]1n1cc(CSc2nc3ccccc3c(=O)n2C)nn1 [Compound 9, 2-(((1-[2,3,4-tri-O-acetyl-β-D-xylopyranosyl]-1 H-1,2,3-triazol-4-yl)methyl)thio)-3-methylquinazolin-4(3 H)-one]",12.6 ± 1.3 µM,3.2 ± 0.2 µM,> 25 µM,22.9 ± 2.3 µM,melting point: 146 to 148 °C
32.25 ± 0.25 µM,18.63 ± 0.14 µM,"CC(=O)OC[C@H]1O[C@@H](n2cc(CSc3nc4ccccc4c(=O)n3-c3ccccc3)nn2)[C@H](OC(C)=O)[C@@H](OC(C)=O)[C@H]1OC(C)=O [Compound 6, 2-(((1-[2,3,4,6-Tetra-O-acetyl-β-D-galactopyranosyl]-1 H-1,2,3-triazol-4-yl)methyl)thio)-3-phenylquinazolin-4(3 H)-one]",13.4 ± 1.2 µM,3.2 ± 0.1 µM,> 25 µM,19.2 ± 2.1 µM,melting point: 90 to 92 °C
22.86 ± 0.13 µM,0.35 ± 0.11 µM,"Cn1c(SCc2cn([C@@H]3O[C@H](CO)[C@H](O)[C@H](O)[C@H]3O)nn2)nc2ccccc2c1=O [Compound 11, 2-(((1-[β-D-Galactopyranosyl]-1 H-1,2,3-triazol-4-yl)methyl)thio)-3-methylquinazolin-4(3 H)-one]",5.7 ± 0.2 µM,5.9 ± 0.1 µM,> 25 µM,17.8 ± 2.1 µM,
22.33 ± 0.1 µM,16.75 ± 0.05 µM,"O=c1c2ccccc2nc(SCc2cn([C@@H]3O[C@H](CO)[C@H](O)[C@H](O)[C@H]3O)nn2)n1-c1ccccc1 [Compound 10, 2-(((1-[β-D-Galactopyranosyl]-1 H-1,2,3-triazol-4-yl)methyl)thio)-3-phenylquinazolin-4(3 H)-one]",8.1 ± 0.6 µM,6.4 ± 0.4 µM,23.5 ± 3.1 µM,17.1 ± 1.1 µM,
13.63 ± 0.08 µM,15.88 ± 0.14 µM,"O=c1c2ccccc2nc(SCc2cn([C@@H]3OC[C@@H](O)[C@H](O)[C@H]3O)nn2)n1-c1ccccc1 [Compound 12, 2-(((1-[β-D-Xylopyranosyl]-1 H-1,2,3-triazol-4-yl)methyl)thio)-3-phenylquinazolin-4(3 H)-one]",6.9 ± 0.3 µM,3 ± 0.3 µM,24.7 ± 2.4 µM,15.1 ± 1.9 µM,

# Reference: publication PMC11500008, “Novel quinazolin-4-one based derivatives bearing 1,2,3-triazole and glycoside moieties as potential cytotoxic agents through dual EGFR and VEGFR-2 inhibitory activity” (Scientific Reports, 2024)
